For 14 compounds, Ki and IC50 results are on record in ChEMBL document CHEMBL1143858, “Structure-based design and synthesis of novel macrocyclic pyrazolo[1,5-a] [1,3,5]triazine compounds as potent inhibitors of protein kinase CK2 and their anticancer activities” (Bioorg Med Chem Lett, 2008).

The term Ki denotes a dissociation constant, usually derived from enzyme kinetics or from competition with a known ligand. Read a low Ki as a stronger hold on the target. Usually IC50 stands for the point on the concentration scale where inhibition reaches its midpoint. Lower therefore signals greater potency in that assay.

Assay [1] addresses Casein kinase II subunit alpha (Zea mays, UniProt P28523). The experiment in a line: Inhibition of corn CK2.
For a further assay, the system named is PC-3. The experiment in a line: Inhibition of human PC3 cells by MTT assay. Format: functional, cell-based.
For a further assay, the system named is HCT-116. The experiment in a line: Inhibition of human HCT116 cells by MTT assay. Format: functional, cell-based. (In general: Formazan colour is commonly taken as a measure of viable cells.)

Casein kinase II subunit alpha, sequence (P28523 whole entry): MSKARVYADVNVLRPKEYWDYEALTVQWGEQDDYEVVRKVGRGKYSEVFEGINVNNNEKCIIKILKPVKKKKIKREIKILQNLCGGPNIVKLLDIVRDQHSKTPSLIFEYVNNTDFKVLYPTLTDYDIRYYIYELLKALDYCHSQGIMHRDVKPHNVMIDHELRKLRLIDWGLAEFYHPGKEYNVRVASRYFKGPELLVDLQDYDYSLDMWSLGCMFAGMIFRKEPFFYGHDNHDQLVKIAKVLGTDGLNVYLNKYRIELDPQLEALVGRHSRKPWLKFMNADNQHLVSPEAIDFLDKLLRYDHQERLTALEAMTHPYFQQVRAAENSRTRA

Consider `O=C1CCCCc2cnn3c(Nc4cccc(C(=O)N5CC(O)C5)c4)nc(nc23)Nc2cccc(c2)N1`, for which the Ki in assay [1] turned out to be 3.6 nM. Further, the IC50 was determined as 600 nM in the assay on PC-3 (Homo sapiens, PC-3) and 330 nM with HCT-116 (Homo sapiens, HCT-116).
As to `CN(C)C1CCN(C(=O)c2cccc(Nc3nc4nc5c(cnn35)CCCCC(=O)Nc3cccc(c3)N4)c2)C1` (stereo unspecified), the affinity in assay [1] corresponds to a Ki of 1.4 nM. The IC50 was 230 nM in the assay with PC-3 (Homo sapiens, PC-3) and 190 nM in the assay on HCT-116 (Homo sapiens, HCT-116).
`CCN(CC)C1CCN(C(=O)c2cccc(Nc3nc4nc5c(cnn35)CCCCC(=O)Nc3cccc(c3)N4)c2)C1` (stereo unspecified) came in with a Ki in assay [1] of 2.2 nM. The IC50 with PC-3 (Homo sapiens, PC-3) turned out to be 140 nM; in the assay on HCT-116 (Homo sapiens, HCT-116), 130 nM.
The corresponding values for `CCN(CC)C1CN(C(=O)c2cccc(Nc3nc4nc5c(cnn35)CCCCC(=O)Nc3cccc(c3)N4)c2)C1` are 3.4 nM, 620 nM and 300 nM.
The compound `CN1CCN(C(=O)c2cccc(Nc3nc4nc5c(cnn35)CCCCC(=O)Nc3cccc(c3)N4)c2)CC1` gave a Ki in assay [1] of 1.3 nM. Besides, the IC50 in the assay on PC-3 (Homo sapiens, PC-3) came out at 500 nM; in the assay with HCT-116 (Homo sapiens, HCT-116), 250 nM.
For the compound `CN1CCC(N(C)C(=O)c2cccc(Nc3nc4nc5c(cnn35)CCCCC(=O)Nc3cccc(c3)N4)c2)CC1`, the affinity in assay [1], expressed as Ki, was 1.4 nM. The same compound came in with an IC50 in the assay on HCT-116 (Homo sapiens, HCT-116) of 180 nM.
Take `CN1CC(NC(=O)c2cccc(Nc3nc4nc5c(cnn35)CCCCC(=O)Nc3cccc(c3)N4)c2)C1`: in assay [1], the affinity, expressed as Ki, was 7.4 nM. In addition, the IC50 was 330 nM with PC-3 (Homo sapiens, PC-3) and 270 nM in the assay on HCT-116 (Homo sapiens, HCT-116).
Turning to `CC(=O)Nc1cccc(Nc2nc(NC3CC3)n3ncc(C#N)c3n2)c1`, it took 5100 nM to reach half-maximal inhibition with PC-3 (Homo sapiens, PC-3) (IC50).
In assay [1], `O=C1CCCCc2cnn3c(Nc4cccc(C(=O)N5CCNCC5)c4)nc(nc23)Nc2cccc(c2)N1` showed a Ki of 0.8 nM. Further, the IC50 in the assay on HCT-116 (Homo sapiens, HCT-116) is 440 nM.
As to `CN1CCC(N(C)C(=O)c2cccc(Nc3nc4nc5c(cnn35)CCCCC(=O)Nc3cccc(c3)N4)c2)C1` (stereo unspecified), the Ki in assay [1] turned out to be 2 nM. For the same compound, the IC50 with PC-3 (Homo sapiens, PC-3) was found to be 120 nM; with HCT-116 (Homo sapiens, HCT-116), 83 nM.
Turning to `CCN(CC)CCN(C)C(=O)c1cccc(Nc2nc3nc4c(cnn24)CCCCC(=O)Nc2cccc(c2)N3)c1`, the affinity in assay [1] corresponds to a Ki of 2.4 nM. The compound also gave an IC50 in the assay on HCT-116 (Homo sapiens, HCT-116) of 150 nM.
Turning to `CN(C)CCN(C)C(=O)c1cccc(Nc2nc3nc4c(cnn24)CCCCC(=O)Nc2cccc(c2)N3)c1`, the Ki in assay [1] came to 4 nM. The IC50 in the assay with PC-3 (Homo sapiens, PC-3) stood at 210 nM; in the assay on HCT-116 (Homo sapiens, HCT-116) it was 130 nM.
As to `CN(C)CCNC(=O)c1cccc(Nc2nc3nc4c(cnn24)CCCCC(=O)Nc2cccc(c2)N3)c1`, affinity in assay [1] was put at a Ki of 5.2 nM. Moreover, the IC50 worked out at 380 nM in the assay on PC-3 (Homo sapiens, PC-3) and 240 nM with HCT-116 (Homo sapiens, HCT-116).
Turning to `O=C1CCCCc2cnn3c(NC4CC4)nc(nc23)Nc2cccc(c2)N1`, the values for the IC50 with PC-3 (pc-3) and with HCT-116 (hct-116) were 880 nM and 290 nM, respectively.
